The text below walks through data of patent US20090143279A1 (priority 2007, published 2009).

Where two headings read alike, the source gives them in different places.

Assay [1] has as its system mitochondrial membrane potential. In kind it is cell-based, mouse.
The subject of the next assay is reactive oxygen species. The class given is cell-based, mouse.
A further assay relates to OXPHOS gene expression. In kind it is cell-based, mouse.
The next assay relates to nuOXPHOS transcripts. In kind it is cell-based, mouse.
A further assay has as its system mtOXPHOS transcripts. In kind it is cell-based, mouse.
A further assay deals with cytochrome c. In kind it is cell-based, mouse.
Assay [2] concerns cellular dehydrogenase activity.
Setting [3] is: composite Z-score vs DMSO, Conc 20 μM.
[4] abbreviates: 20 μM, composite Z-score vs DMSO.
Where [5] appears, read: normalized composite Z-score vs mock-treated (DMSO) wells, Conc 20 μM.
Setting [6] is: Conc 20 μM, normalized score vs mock-treated (DMSO) wells.
Setting [7] is: composite Z-score vs mock-treated (DMSO) wells, Conc 20 μM.

For the molecule `COC(=O)N/N=C/c1c[n+]([O-])c2ccccc2[n+]1[O-]` [carbadox], the ΔΨm in assay [1] (setting [3]) was −1.394. This molecule registered an ROS with reactive oxygen species (setting [3]) of −0.079. The GE-HTS with OXPHOS gene expression (setting [3]) was −0.802. In addition, the nucOX in the assay with nuOXPHOS transcripts (setting [3]) is −0.599. The mitoOX in the assay on mtOXPHOS transcripts (setting [3]) is listed as −1.076. Besides, the cyt c in the assay with cytochrome c (setting [3]) was −0.250. For the same molecule, the Viability in the assay with C2C12 myotubes (setting [3]) is given as −0.905. The molecule further yielded an MTT in assay [2] (setting [3]) of −1.334.
On to `CC1(C)S[C@@H]2[C@H](NC(=O)C(C(=O)O)c3ccccc3)C(=O)N2[C@H]1C(=O)O` (stereo partly drawn) [carbenicillin], for which the ΔΨm in assay [1] (setting [4]) was 0.298. Further, the ROS with reactive oxygen species (setting [4]) came to 2.042. This molecule also registered a GE-HTS in the assay with OXPHOS gene expression (setting [4]) of −0.869. The nucOX in the assay with nuOXPHOS transcripts (setting [4]) is −0.835. Moreover, the mitoOX in the assay on mtOXPHOS transcripts (setting [4]) is reported as −0.823. In addition, the cyt c with cytochrome c (setting [4]) is on record as −0.074. In the assay with C2C12 myotubes (setting [4]), this molecule had a Viability of −0.524. Further, the MTT in assay [2] (setting [4]) was −0.565.
Regarding `Cc1c(C(=O)O)c(O)cc2c1C(=O)c1c(O)c([C@@H]3O[C@H](CO)[C@@H](O)[C@H](O)[C@H]3O)c(O)c(O)c1C2=O` [carminic acid], the ΔΨm in assay [1] (setting [3]) is recorded as −0.378. The molecule also showed an ROS in the assay on reactive oxygen species (setting [3]) of 0.083. In the assay on OXPHOS gene expression (setting [3]), this molecule showed a GE-HTS of −0.727. The molecule further gave a nucOX in the assay with nuOXPHOS transcripts (setting [3]) of −0.662. This molecule also displayed a mitoOX in the assay on mtOXPHOS transcripts (setting [3]) of −0.671. Also, the cyt c in the assay on cytochrome c (setting [3]) is given as −0.243. This molecule also displayed a Viability in the assay with C2C12 myotubes (setting [3]) of −0.905. The MTT in assay [2] (setting [3]) is listed as −1.295.
`C=C1CC[C@H]2O[C@]2(C)CC[C@@H]2[C@@H]1CC2(C)C` [carylophyllene oxide] displayed a ΔΨm in assay [1] (setting [5]) of −0.246. This molecule displayed an ROS in the assay on reactive oxygen species (setting [5]) of 0.636. In addition, the GE-HTS in the assay on OXPHOS gene expression (setting [5]) is given as −0.087. In the assay on nuOXPHOS transcripts (setting [5]), this molecule came in with a nucOX of 0.060. In addition, the mitoOX in the assay with mtOXPHOS transcripts (setting [5]) is −0.324. The cyt c with cytochrome c (setting [5]) stood at 0.321. The Viability in the assay with C2C12 myotubes (setting [5]) is listed as −0.547. Further, the MTT in assay [2] (setting [5]) is given as −0.713.
The molecule `CC(=O)Oc1cc(OC(C)=O)c2c(c1)O[C@H](c1ccc(OC(C)=O)c(OC(C)=O)c1)[C@@H](OC(C)=O)C2` [catechin pentaacetate] showed a ΔΨm in assay [1] (setting [5]) of −2.799. In the assay with reactive oxygen species (setting [5]), the ROS is −1.649. In the assay with OXPHOS gene expression (setting [5]), this molecule registered a GE-HTS of 0.269. This molecule also gave a nucOX in the assay with nuOXPHOS transcripts (setting [5]) of 0.314. This molecule registered a mitoOX with mtOXPHOS transcripts (setting [5]) of 0.161. In the assay on cytochrome c (setting [5]), this molecule displayed a cyt c of 0.425. The molecule also returned a Viability with C2C12 myotubes (setting [5]) of 0.652. This molecule registered an MTT in assay [2] (setting [5]) of −1.126.
With `O=C(Oc1cc(OC(=O)c2ccccc2)c2c(c1)O[C@H](c1ccc(OC(=O)c3ccccc3)c(OC(=O)c3ccccc3)c1)[C@@H](OC(=O)c1ccccc1)C2)c1ccccc1` [catechin pentabenzoate], the “ΔΨm (composite Z-score)” value in assay [1] (setting [6]) is −1.326. The “ROS (composite Z-score)” value in the assay on reactive oxygen species (setting [6]) worked out at 0.599. In addition, the “GE-HTS (composite Z-score)” value with OXPHOS gene expression (setting [6]) was −0.898. Further, the “nucOX (composite Z-score)” value with nuOXPHOS transcripts (setting [6]) is −0.815. Further, the “mitoOX (composite Z-score)” value in the assay with mtOXPHOS transcripts (setting [6]) is listed as −0.896. Moreover, the “cyt c (composite Z-score)” value in the assay on cytochrome c (setting [6]) came to 1.272. Also, in the assay with C2C12 myotubes (setting [6]), the “Viability (composite Z-score)” value is given as −1.434. In assay [2] (setting [6]), the “MTT (composite Z-score)” value is given as −1.672.
For the molecule `COc1cc(OC)c2c(c1)O[C@H](c1ccc(OC)c(OC)c1)[C@@H](O)C2` [catechin tetramethylether], in assay [1] (setting [5]), the ΔΨm is −0.172. The molecule further yielded an ROS in the assay on reactive oxygen species (setting [5]) of −0.094. Besides, the GE-HTS with OXPHOS gene expression (setting [5]) is recorded as −1.052. Besides, the nucOX with nuOXPHOS transcripts (setting [5]) is given as −1.106. Further, the mitoOX with mtOXPHOS transcripts (setting [5]) was −0.798. In the assay on cytochrome c (setting [5]), this molecule yielded a cyt c of 0.586. The Viability in the assay with C2C12 myotubes (setting [5]) was found to be 0.435. This molecule returned an MTT in assay [2] (setting [5]) of −0.573.
Turning to `COc1cc(O)c(C(=O)c2ccccc2)cc1O` [cearoin], the ΔΨm in assay [1] (setting [7]) is recorded as −1.006. Also, the ROS in the assay with reactive oxygen species (setting [7]) was −2.274. For the same molecule, the GE-HTS in the assay with OXPHOS gene expression (setting [7]) was −1.672. For the same molecule, the nucOX in the assay with nuOXPHOS transcripts (setting [7]) is −1.568. This molecule also yielded a mitoOX in the assay with mtOXPHOS transcripts (setting [7]) of −1.603. This molecule yielded a cyt c in the assay with cytochrome c (setting [7]) of −1.478. Further, the Viability with C2C12 myotubes (setting [7]) is −1.078. For the same molecule, the MTT in assay [2] (setting [7]) is listed as −2.331.
On to `CC(=O)O[C@]1(C)CC[C@@]23C[C@@H]1C(C)(C)[C@@H]2CC[C@H]3C` [cedryl acetate], for which, in assay [1] (setting [5]), the ΔΨm is listed as −0.042. The molecule also showed an ROS with reactive oxygen species (setting [5]) of 1.566. Besides, the GE-HTS with OXPHOS gene expression (setting [5]) is recorded as 0.067. The molecule also registered a nucOX in the assay on nuOXPHOS transcripts (setting [5]) of 0.184. Moreover, the mitoOX in the assay with mtOXPHOS transcripts (setting [5]) was −0.149. In addition, the cyt c in the assay with cytochrome c (setting [5]) was 0.388. Moreover, in the assay on C2C12 myotubes (setting [5]), the Viability is on record as −0.311. Also, in assay [2] (setting [5]), the MTT is reported as −0.176.
